Source: ChEMBL document CHEMBL1201862, “PubChem BioAssay data set” (2004)
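All cell lines were grown in 96-well plates and treated with compound for 48 hours. The concentration for 50% growth inhibition is given as GI50.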 Calls of active or inactive are those of the source. Cut-off read from the data, not from the text of the source: active = GI50 up to about 1.1 µM and inactive = higher.

Assays:
Experiment in all cases: DTP human tumour cell line panel, 48 h
SK-MEL-2 = tested on: SK-MEL-2
SNB-75 = tested on: SNB-75
A549 = tested on: A549
DU-145 = tested on: DU-145
SR = tested on: SR
OVCAR-5 = tested on: OVCAR-5
OVCAR-8 = tested on: OVCAR-8
MOLT-4 = tested on: MOLT-4
NCI-H226 = tested on: NCI-H226
HCC 2998 = tested on: HCC 2998
ACHN = tested on: ACHN
OVCAR-4 = tested on: OVCAR-4
UACC-257 = tested on: UACC-257
SK-MEL-28 = tested on: SK-MEL-28
Malme-3M = tested on: Malme-3M
RPMI-8226 = tested on: RPMI-8226
CAKI-1 = tested on: CAKI-1
HCT-116 = tested on: HCT-116
KM12 = tested on: KM12
CCRF-CEM = tested on: CCRF-CEM

Row | SMILES | GI50 (SK-MEL-2) | GI50 (SNB-75) | GI50 (A549) | GI50 (DU-145) | GI50 (SR) | GI50 (OVCAR-5) | GI50 (OVCAR-8) | GI50 (MOLT-4) | GI50 (NCI-H226) | GI50 (HCC 2998) | GI50 (ACHN) | GI50 (OVCAR-4) | GI50 (UACC-257) | GI50 (SK-MEL-28) | GI50 (Malme-3M) | GI50 (RPMI-8226) | GI50 (CAKI-1) | GI50 (HCT-116) | GI50 (KM12) | GI50 (CCRF-CEM)
1 | CC(=O)/C(=N\N=C(N)N)c1ccccc1 | > 100 µM (inactive) | > 100 µM (inactive) | > 100 µM (inactive) | > 100 µM (inactive) | > 100 µM (inactive) | > 100 µM (inactive) | > 100 µM (inactive) | > 100 µM (inactive) | > 100 µM (inactive) | 28.1 µM (inactive) | > 100 µM (inactive) | > 100 µM (inactive) | > 100 µM (inactive) | > 100 µM (inactive) | > 100 µM (inactive) | > 100 µM (inactive) | > 100 µM (inactive) | > 100 µM (inactive) | > 100 µM (inactive) | 
2 | O=C1NC(c2ccccc2)C1N(Cc1ccccc1)Cc1ccccc1 (stereo unspecified) | > 100 µM (inactive) | 25.5 µM (inactive) |  | > 100 µM (inactive) | > 100 µM (inactive) | > 100 µM (inactive) | > 100 µM (inactive) | > 100 µM (inactive) | > 100 µM (inactive) | > 100 µM (inactive) | > 100 µM (inactive) | 59.8 µM (inactive) | > 100 µM (inactive) | > 100 µM (inactive) | > 100 µM (inactive) | > 100 µM (inactive) | > 100 µM (inactive) | > 100 µM (inactive) | > 100 µM (inactive) | > 100 µM (inactive)
3 | CC(C)(C)C=C=C(C(C)(C)C)P(=O)(O)O | > 100 µM (inactive) | > 100 µM (inactive) | > 100 µM (inactive) | > 100 µM (inactive) | > 100 µM (inactive) | > 100 µM (inactive) | > 100 µM (inactive) |  | > 100 µM (inactive) | > 100 µM (inactive) | > 100 µM (inactive) | > 100 µM (inactive) | > 100 µM (inactive) | > 100 µM (inactive) | > 100 µM (inactive) | < 0.01 µM (active) | > 100 µM (inactive) | > 100 µM (inactive) | > 100 µM (inactive) | 
4 | CCOC(CNCCC(=O)OC)OCC | > 10 µM (inactive) | > 10 µM (inactive) | > 10 µM (inactive) | > 10 µM (inactive) | > 10 µM (inactive) |  | > 10 µM (inactive) | > 10 µM (inactive) | > 10 µM (inactive) | > 10 µM (inactive) | > 10 µM (inactive) | > 10 µM (inactive) | > 10 µM (inactive) | > 10 µM (inactive) | > 10 µM (inactive) | > 10 µM (inactive) | > 10 µM (inactive) | > 10 µM (inactive) | > 10 µM (inactive) | > 10 µM (inactive)
5 | CC[C@H](C)[C@@H]([C@@H](CC(=O)N1CCC[C@H]1[C@H](OC)[C@@H](C)C(=O)NCCc1ccccc1)OC)N(C)C(=O)C(NC(=O)[C@H](C(C)C)N(C)C)C(C)C (stereo partly specified) | 0.000423 µM (active) | 0.000275 µM (active) | 0.000248 µM (active) | 0.000227 µM (active) | 2.57e-05 µM (active) |  | 0.000333 µM (active) | 0.000132 µM (active) | 0.00064 µM (active) | 0.000266 µM (active) | 0.000757 µM (active) | 0.00094 µM (active) | 0.00139 µM (active) | > 10 µM (inactive) | 0.001 µM (active) | 0.000203 µM (active) | 0.00216 µM (active) | 0.000255 µM (active) | 8.57e-05 µM (active) | 0.000219 µM (active)
6 | COc1ccc(C23OCC(Cc4cc(OC)c(OC)cc42)C3COC(C)=O)cc1OC (stereo unspecified) | > 100 µM (inactive) | > 100 µM (inactive) | > 100 µM (inactive) | > 100 µM (inactive) | 27.4 µM (inactive) | > 100 µM (inactive) |  | > 100 µM (inactive) | 5.66 µM (inactive) | > 100 µM (inactive) | > 100 µM (inactive) | > 100 µM (inactive) |  | > 100 µM (inactive) | > 100 µM (inactive) | > 100 µM (inactive) | > 100 µM (inactive) | > 100 µM (inactive) | > 100 µM (inactive) | 
